Assay results: patent publication US20080096811A1, “[…] VPAC2 RECEPTOR PEPTIDE AGONISTS” (Eli Lilly and Company, published 2008)
pEC50, pIC50: −log10 of the molar value. *1 amine or outer side, *2 acyl side, *3 side chain or, on linkers, in order; H or OH if unused. Where a SMILES comes first, the peptide text is derived from it. Where no end group is shown, it is not given here. Side-chain parts run from the residue outwards. The star is where a group is joined. γGlu = O=C(O)[C@H](CCC(=O)[*:2])N[*:1]; Hydrocinnamoyl = O=C(CCc1ccccc1)*; Palmitoyl = CCCCCCCCCCCCCCCC(=O)*; Hexanoyl = CCCCCC(=O)*; Bz = O=C(c1ccccc1)*

Assays:
human VPAC2 [1] = target: T1, human VPAC2 (Homo sapiens, UniProt P41587); assay: DiscoveRx cAMP in vitro potency, human VPAC2; assay type: cell-based
T1 construct: expressed in transfected cells
T1 sequence (P41587 24-438): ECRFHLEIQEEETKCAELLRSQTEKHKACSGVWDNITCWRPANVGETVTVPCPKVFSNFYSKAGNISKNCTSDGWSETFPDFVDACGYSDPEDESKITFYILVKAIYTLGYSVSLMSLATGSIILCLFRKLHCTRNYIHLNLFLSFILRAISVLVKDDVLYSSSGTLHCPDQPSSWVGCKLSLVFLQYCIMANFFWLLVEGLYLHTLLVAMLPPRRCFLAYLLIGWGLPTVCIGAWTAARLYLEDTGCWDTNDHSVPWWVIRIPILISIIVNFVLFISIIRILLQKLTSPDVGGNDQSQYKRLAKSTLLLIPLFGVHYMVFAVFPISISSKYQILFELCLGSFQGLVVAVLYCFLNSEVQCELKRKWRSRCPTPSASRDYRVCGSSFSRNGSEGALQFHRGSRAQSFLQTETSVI
Description: Also, the cells are washed twice. The cells are incubated in assay buffer plus IBMX for 15 minutes at room temperature. […] The stimuli are present for 30 minutes. Then, the assay buffer is gently removed. […] At day 3, the assay described above for the VPAC2 receptor cell line is performed.

human VPAC2 [2] = target: T1, human VPAC2; assay: Alpha screen cAMP in vitro potency, human VPAC2; assay type: cell-based
Description: Alpha screen: Cells are washed in the culture flask once with PBS. Then, the cells are rinsed with enzyme free dissociation buffer. The dissociated cells are removed. The cells are then spun down and washed in stimulation buffer. For each data point, 50,000 cells suspended in stimulation buffer are used. To this buffer, Alpha screen acceptor beads are added along with the stimuli. This mixture is incubated for 60 minutes. Lysis buffer and Alpha screen donor beads are added and are incubated for 60 to 120 minutes. The Alpha screen signal (indicative of intracellular cAMP levels) is read in a suitable instrument (e.g. AlphaQuest from Perlin-Elmer). Steps including Alpha screen donor and acceptor beads are performed in reduced light.

human VPAC2 [3] = target: T1, human VPAC2; assay: Filter binding assay, human VPAC2 membranes, 125I-labeled VIP tracer
Description: (§1) For this assay, the solutions and equipment include:
(§2) Presoak solution: 0.5% Polyethyleneamine in Aqua dest.
(§3) Buffer for flushing filter plates: 25 mM […] pH 7.4
(§4) Blocking buffer: 25 mM HEPES pH 7.4; 0.2% protease free BSA
(§5) Assay buffer: 25 mM HEPES pH 7.4; 0.5% protease free BSA
(§6) Dilution and assay plate: PS-Microplate, U form
(§7) Filtration Plate Multiscreen FB Opaque Plate; […] Type B Glasfiber filter
(§8) In order to prepare the filter plates, aspirate the presoak solution by vacuum filtration. Flush the plates twice with 200 μL flush buffer. Add 200 μL blocking buffer to the filter plate. The filter plate is then incubated […] for 1 hour at room temperature.
(§9) Fill the assay plate with 25 μL assay buffer, 25 μL membranes (2.5 μg) suspended in assay buffer, 25 μL compound (agonist) in assay buffer, and 25 μL tracer (about 40000 cpm) in assay buffer. Incubate the filled plate for 1 hour with shaking.
(§10) Conduct the transfer from assay plate to filter plate. Aspirate the blocking buffer by vacuum filtration and wash two times with flush buffer. Transfer 90 μL from the assay plate to the filter plate. Aspirate the 90 μL transferred from assay plate and wash three times with 200 μL flush buffer. Remove the plastic support. Dry for 1 hour at 60° C. Add 30 μL Microscint. Perform the count.

human VPAC1 = target: T2, human VPAC1 (Homo sapiens, UniProt P32241); assay: Filter binding assay, human VPAC1 membranes, 125I-labeled VIP tracer; design: expressed in transfected cells
T2 sequence (P32241 31-457): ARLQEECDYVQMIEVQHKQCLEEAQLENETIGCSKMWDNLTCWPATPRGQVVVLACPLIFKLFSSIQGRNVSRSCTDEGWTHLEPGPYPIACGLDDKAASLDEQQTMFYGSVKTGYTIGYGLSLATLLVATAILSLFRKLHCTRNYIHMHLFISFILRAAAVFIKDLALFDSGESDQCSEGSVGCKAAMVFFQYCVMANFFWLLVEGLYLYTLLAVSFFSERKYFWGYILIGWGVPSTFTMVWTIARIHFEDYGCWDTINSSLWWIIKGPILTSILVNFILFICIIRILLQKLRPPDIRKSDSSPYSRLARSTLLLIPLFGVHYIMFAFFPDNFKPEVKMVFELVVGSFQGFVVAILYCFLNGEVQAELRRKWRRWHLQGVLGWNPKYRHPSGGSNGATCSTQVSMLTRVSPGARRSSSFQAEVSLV
Description: as §1, §2, §3, §4, §5, §6, §7, §8, §9, §10

human PAC1 = human PAC1 (Homo sapiens, UniProt P41586); assay: biochemical
Chain of human PAC1 (P41586 21-468): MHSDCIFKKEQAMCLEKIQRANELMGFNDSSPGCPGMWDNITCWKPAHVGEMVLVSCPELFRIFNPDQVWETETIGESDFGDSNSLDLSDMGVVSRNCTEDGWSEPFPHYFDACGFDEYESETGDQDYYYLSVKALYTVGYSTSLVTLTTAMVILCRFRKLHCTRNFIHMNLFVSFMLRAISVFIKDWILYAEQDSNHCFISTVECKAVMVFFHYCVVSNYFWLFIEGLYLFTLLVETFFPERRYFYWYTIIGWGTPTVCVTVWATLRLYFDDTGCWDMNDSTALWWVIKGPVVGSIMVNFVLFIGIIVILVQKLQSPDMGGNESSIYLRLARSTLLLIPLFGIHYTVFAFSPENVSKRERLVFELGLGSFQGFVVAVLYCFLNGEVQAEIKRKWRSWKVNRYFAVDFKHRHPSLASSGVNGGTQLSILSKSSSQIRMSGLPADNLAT
Description: as §1, §2, §3, §4, §5, §6, §7, §8, §9, §10

Row | Compound | pEC50 (human VPAC2 [1]) | pEC50 (human VPAC2 [2]) | pIC50 (human VPAC2 [3]) | pIC50 (human VPAC1) | pIC50 (human PAC1)
1 | CCCCCCCCCCCCCCCC(=O)N[C@@H](CCC(=O)NCCCC[C@H](NC(=O)[C@@H]1CCCN1C(=O)[C@@H]1CCCN1C(=O)[C@@H]1CCCN1C(=O)[C@H](CO)NC(=O)[C@@H](NC(=O)[C@H](CCCNC(=N)N)NC(=O)[C@H](CO)NC(=O)[C@H](CC(N)=O)NC(=O)[C@H](CCCCN)NC(=O)[C@@H](NC(=O)[C@H](CO)NC(=O)[C@H](CCC(N)=O)NC(=O)[C@H](CC(C)C)NC(=O)[C@H](Cc1ccc(O)cc1)NC(=O)[C@H](CCCCN)NC(=O)[C@H](CCCCN)NC(=O)[C@H](C)NC(=O)[C@H](C)NC(=O)[C@@H](NC(=O)[C@H](CCC(N)=O)NC(=O)[C@H](CCCCN)NC(=O)[C@H](CCCNC(=N)N)NC(=O)[C@H](CC(C)C)NC(=O)[C@H](CCCNC(=N)N)NC(=O)[C@@H](NC(=O)[C@H](Cc1ccc(O)cc1)NC(=O)[C@H](CC(N)=O)NC(=O)[C@H](CC(=O)O)NC(=O)[C@@H](NC(=O)[C@H](Cc1ccccc1)NC(=O)[C@@H](NC(=O)[C@H](C)NC(=O)[C@H](CC(=O)O)NC(=O)[C@H](CO)NC(=O)[C@@H](N)Cc1c[nH]cn1)C(C)C)[C@@H](C)O)[C@@H](C)O)C(C)C)[C@@H](C)CC)[C@@H](C)O)C(N)=O)C(=O)O [Agonist P80] (H-HSDAVFTDNYTRLRKQVAAKKYLQSIKNSRTSPPPK([γGlu-Palmitoyl])-NH2) | 8.55 | 8.74 | 7.50 | 6.55 | 
2 | CC[C@H](C)[C@H](NC(=O)[C@H](CO)NC(=O)[C@H](CCC(N)=O)NC(=O)[C@H](CC(C)C)NC(=O)[C@H](Cc1ccc(O)cc1)NC(=O)[C@H](CCCCN)NC(=O)[C@H](CCCCN)NC(=O)[C@H](C)NC(=O)[C@H](C)NC(=O)[C@@H](NC(=O)[C@H](CCC(N)=O)NC(=O)[C@H](CCCCN)NC(=O)[C@H](CCCNC(=N)N)NC(=O)[C@H](CC(C)C)NC(=O)[C@H](CCCNC(=N)N)NC(=O)[C@@H](NC(=O)[C@H](Cc1ccc(O)cc1)NC(=O)[C@H](CC(N)=O)NC(=O)[C@H](CC(=O)O)NC(=O)[C@@H](NC(=O)[C@H](Cc1ccccc1)NC(=O)[C@@H](NC(=O)[C@H](C)NC(=O)[C@H](CC(=O)O)NC(=O)[C@H](CO)NC(=O)[C@H](Cc1c[nH]cn1)NC(=O)CCc1ccccc1)C(C)C)[C@@H](C)O)[C@@H](C)O)C(C)C)C(=O)N[C@@H](CCCCN)C(=O)N[C@@H](CC(N)=O)C(=O)N[C@@H](CO)C(=O)N[C@@H](CCCNC(=N)N)C(=O)N[C@H](C(=O)N[C@@H](CO)C(=O)N1CCC[C@H]1C(=O)N1CCC[C@H]1C(=O)N1CCC[C@H]1C(N)=O)[C@@H](C)O [Agonist P90] (Hydrocinnamoyl-HSDAVFTDNYTRLRKQVAAKKYLQSIKNSRTSPPP-NH2) | 8.77 | 8.40 | 9.09 | 7.19 | 
3 | CC[C@H](C)[C@H](NC(=O)[C@H](CO)NC(=O)[C@H](CCC(N)=O)NC(=O)[C@H](CC(C)C)NC(=O)[C@H](Cc1ccc(O)cc1)NC(=O)[C@H](CCCCN)NC(=O)[C@H](CCCCN)NC(=O)[C@H](C)NC(=O)[C@H](C)NC(=O)[C@@H](NC(=O)[C@H](CCC(N)=O)NC(=O)[C@H](CCCCN)NC(=O)[C@H](CCCNC(=N)N)NC(=O)[C@H](CC(C)C)NC(=O)[C@H](CCCNC(=N)N)NC(=O)[C@@H](NC(=O)[C@H](Cc1ccc(O)cc1)NC(=O)[C@H](CC(N)=O)NC(=O)[C@H](CC(=O)O)NC(=O)[C@@H](NC(=O)[C@H](Cc1ccccc1)NC(=O)[C@@H](NC(=O)[C@H](C)NC(=O)[C@H](CC(=O)O)NC(=O)[C@H](CO)NC(=O)[C@H](Cc1c[nH]cn1)NC(=O)c1ccccc1)C(C)C)[C@@H](C)O)[C@@H](C)O)C(C)C)C(=O)N[C@@H](CCCCN)C(=O)N[C@@H](CC(N)=O)C(=O)N[C@@H](CO)C(=O)N[C@@H](CCCNC(=N)N)C(=O)N[C@H](C(=O)N[C@@H](CO)C(=O)N1CCC[C@H]1C(=O)N1CCC[C@H]1C(=O)N1CCC[C@H]1C(N)=O)[C@@H](C)O [Agonist P91] (Bz-HSDAVFTDNYTRLRKQVAAKKYLQSIKNSRTSPPP-NH2) | 9.12 | 8.72 | 9.68 | 7.24 | 
4 | CCCCCC(=O)N[C@@H](Cc1c[nH]cn1)C(=O)N[C@@H](CO)C(=O)N[C@@H](CC(=O)O)C(=O)N[C@@H](C)C(=O)N[C@H](C(=O)N[C@@H](Cc1ccccc1)C(=O)N[C@H](C(=O)N[C@@H](CC(=O)O)C(=O)N[C@@H](CC(N)=O)C(=O)N[C@@H](Cc1ccc(O)cc1)C(=O)N[C@H](C(=O)N[C@@H](CCCNC(=N)N)C(=O)N[C@@H](CC(C)C)C(=O)N[C@@H](CC(C)C)C(=O)N[C@@H](CC(C)C)C(=O)N[C@@H](CCCCN)C(=O)N[C@H](C(=O)N[C@@H](C)C(=O)N[C@@H](C)C(=O)N[C@@H](CCCCN)C(=O)N[C@@H](CCCCN)C(=O)N[C@@H](Cc1ccc(O)cc1)C(=O)N[C@@H](CC(C)C)C(=O)N[C@@H](CCC(N)=O)C(=O)N[C@@H](CO)C(=O)N[C@H](C(=O)N[C@@H](CCCCN)C(=O)N[C@@H](CC(N)=O)C(=O)N[C@@H](CO)C(=O)N[C@@H](CCCNC(=N)N)C(=O)N[C@H](C(=O)N[C@@H](CO)C(=O)N1CCC[C@H]1C(=O)N1CCC[C@H]1C(=O)N1CCC[C@H]1C(N)=O)[C@@H](C)O)[C@@H](C)CC)C(C)C)[C@@H](C)O)[C@@H](C)O)C(C)C [Agonist P156] (Hexanoyl-HSDAVFTDNYTRLLLKVAAKKYLQSIKNSRTSPPP-NH2) |  | 9.54 | 9.38 | 7.03 | 5.08
5 | CCCCCC(=O)N[C@@H](Cc1c[nH]cn1)C(=O)N[C@@H](CO)C(=O)N[C@@H](CC(=O)O)C(=O)N[C@@H](C)C(=O)N[C@H](C(=O)N[C@@H](Cc1ccccc1)C(=O)N[C@H](C(=O)N[C@@H](CC(=O)O)C(=O)N[C@@H](CCC(N)=O)C(=O)N[C@@H](Cc1ccc(O)cc1)C(=O)N[C@H](C(=O)N[C@@H](CCCNC(=N)N)C(=O)N[C@@H](CC(C)C)C(=O)N[C@@H](CCCNC(=N)N)C(=O)N[C@@H](CCCCN)C(=O)N[C@@H](CCC(N)=O)C(=O)N[C@H](C(=O)N[C@@H](C)C(=O)N[C@@H](C)C(=O)N[C@@H](CCCCN)C(=O)N[C@@H](CCCCN)C(=O)N[C@@H](Cc1ccc(O)cc1)C(=O)N[C@@H](CC(C)C)C(=O)N[C@@H](CCC(N)=O)C(=O)N[C@@H](CO)C(=O)N[C@H](C(=O)N[C@@H](CCCCN)C(=O)N[C@@H](CCC(N)=O)C(=O)N[C@@H](CO)C(=O)N[C@@H](CCCNC(=N)N)C(=O)N[C@H](C(=O)N[C@@H](CO)C(=O)N1CCC[C@H]1C(=O)N1CCC[C@H]1C(=O)N1CCC[C@H]1C(N)=O)[C@@H](C)O)[C@@H](C)CC)C(C)C)[C@@H](C)O)[C@@H](C)O)C(C)C [Agonist P157] (Hexanoyl-HSDAVFTDQYTRLRKQVAAKKYLQSIKQSRTSPPP-NH2) |  | 10.22 | 9.85 | 7.51 | 6.65
6 | HSDAVFTDNYTRLRKAAAAKKYLQSIKNSRTSPPP-NH2 [Agonist P97] |  | 9.19 | 9.09 | 7.01 | 7.06
7 | HSDAVFTDNYTRLRKQAAAKKYLQSIKNSRTSPPP-NH2 [Agonist P96] |  | 9.05 | 9.24 | 7.05 | 6.82
